# Experimental data from patent US20100143332A1, “COMBINATION THERAPY FOR PROLIFERATIVE DISORDERS” (Schering Corporation, priority 2006, published 2010).
# T1: human DNA polymerase alpha (human, UniProt P09884 1-1462)
# T1 construct: Endogenous protein in lysates of human U20S osteosarcoma cells; Other subunits of the polymerase alpha complex may have been present in the immune complexes; also called Polα; PolA gene product
# T1 sequence: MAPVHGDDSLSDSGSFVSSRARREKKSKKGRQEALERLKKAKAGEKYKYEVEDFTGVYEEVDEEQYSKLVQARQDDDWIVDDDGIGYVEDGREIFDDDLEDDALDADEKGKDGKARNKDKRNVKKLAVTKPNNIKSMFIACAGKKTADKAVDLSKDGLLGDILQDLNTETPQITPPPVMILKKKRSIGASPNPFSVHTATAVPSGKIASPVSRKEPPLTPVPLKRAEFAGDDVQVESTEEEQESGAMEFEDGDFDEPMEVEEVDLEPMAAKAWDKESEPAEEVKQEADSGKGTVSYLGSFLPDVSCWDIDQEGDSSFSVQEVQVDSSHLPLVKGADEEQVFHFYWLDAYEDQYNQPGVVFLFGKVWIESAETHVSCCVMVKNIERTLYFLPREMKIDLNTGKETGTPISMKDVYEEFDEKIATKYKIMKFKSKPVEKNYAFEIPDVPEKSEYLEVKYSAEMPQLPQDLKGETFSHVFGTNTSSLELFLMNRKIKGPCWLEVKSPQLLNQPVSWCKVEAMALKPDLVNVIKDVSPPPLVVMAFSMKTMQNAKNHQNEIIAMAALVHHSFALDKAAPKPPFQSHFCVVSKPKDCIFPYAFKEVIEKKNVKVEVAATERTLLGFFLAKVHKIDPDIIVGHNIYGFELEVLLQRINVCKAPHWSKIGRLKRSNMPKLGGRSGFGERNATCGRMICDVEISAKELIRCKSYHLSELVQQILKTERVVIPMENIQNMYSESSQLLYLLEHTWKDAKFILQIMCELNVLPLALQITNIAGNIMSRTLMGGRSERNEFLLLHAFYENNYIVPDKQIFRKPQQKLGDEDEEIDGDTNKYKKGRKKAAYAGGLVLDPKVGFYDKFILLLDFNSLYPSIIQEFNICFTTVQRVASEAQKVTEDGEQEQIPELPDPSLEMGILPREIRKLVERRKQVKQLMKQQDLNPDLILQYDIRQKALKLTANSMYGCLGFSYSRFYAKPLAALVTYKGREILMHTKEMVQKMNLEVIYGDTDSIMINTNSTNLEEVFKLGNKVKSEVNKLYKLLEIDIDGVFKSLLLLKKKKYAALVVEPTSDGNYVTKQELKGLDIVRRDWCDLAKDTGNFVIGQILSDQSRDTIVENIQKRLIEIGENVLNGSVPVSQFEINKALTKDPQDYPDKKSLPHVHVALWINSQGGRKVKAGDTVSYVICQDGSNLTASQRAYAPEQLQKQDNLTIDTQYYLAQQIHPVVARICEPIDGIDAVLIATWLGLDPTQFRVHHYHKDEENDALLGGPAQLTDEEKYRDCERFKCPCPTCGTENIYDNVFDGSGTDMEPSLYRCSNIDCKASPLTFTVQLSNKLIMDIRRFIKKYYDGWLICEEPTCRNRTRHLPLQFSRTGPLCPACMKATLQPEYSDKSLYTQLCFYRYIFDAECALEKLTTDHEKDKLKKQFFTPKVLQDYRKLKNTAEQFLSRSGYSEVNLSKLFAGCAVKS
# B1: Chk1 S345P (Chk1 phosphorylated at S345) (enzyme)
# chain: MAVPFVEDWDLVQTLGEGAYGEVQLAVNRVTEEAVAVKIVDMKRAVDCPENIKKEICINKMLNHENVVKFYGHRREGNIQYLFLEYCSGGELFDRIEPDIGMPEPDAQRFFHQLMAGVVYLHGIGITHRDIKPENLLLDERDNLKISDFGLATVFRYNNRERLLNKMCGTLPYVAPELLKRREFHAEPVDVWSCGIVLTAMLAGELPWDQPSDSCQEYSDWKEKKTYLNPWKKIDSAPLALLHKILVENPSARITIPDIKKDRWYNKPLKKGAKRPRVTSGGVSESPSGFSKHIQSNLDFSPVNSASSEENVKYSSSQPEPRTGLSLWDTSPSYIDKLVQGISFSQPTCPDHMLLNSQLLGTPGSSQNPWQRLVKRMTRFFTKLDADKSYQCLKETCEKLGYQWKKSCMNQVTISTTDRRNNKLIFKVNLLEMDDKILVDFRLSKGDGLEFKRHFLKIKGKLIDIVSSQKVWLPAT
# modifications: phosphoserine at 345 (Chk1 S345P)
# notes: also called phospho-S345 Chk1; Chk S345P
# Columns and labels:
# [1] = test system: γ-H2A.X phosphorylation in U20S cells; assay: γ-H2A.X phosphorylation by intracellular staining and FACS (marker of double-stranded DNA breaks); assay type: cell-based, Human
# Description: (§1) Cell lines, drugs, and siRNA treatment materials and methods are as follow. Human U20S osteosarcoma cells are grown in DMEM (Mediatech, Herndon, Va.) supplemented with 10% FBS (JRH BioSciences, St. Louis, Mo.), 200 U/ml penicillin, 200 μg/ml streptomycin, and 300 μg/ml L-Glutamine (Cambrex). HU (Sigma, St. Louis, Mo.) is used at 1 mM for 15 hours.
# (§2) Cells are transfected with 50 nM siRNA for Chk1, 100 nM siRNA for Luciferase (Luc), PolA, PolE, PolD1, and ATR duplexes using Lipofectamine 2000 (Invitrogen, Carlsbad, Calif.) according to the manufacturer's protocol.
# Flow cytometric analysis, e.g. γ-H2AX detection for DNA damage and BrdU incorporation for cell cycle analysis, is performed as described previously (Cho et al. (2005) Cell Cycle 4:131) and analyzed with a BD LSR II (BD BioSciences, San Jose, Calif.) using FacsDIVA software.
# [2] = test system: Chk1 S345 phosphorylation in U20S cells; assay: Western blot of Chk1 S345 phosphorylation in cell extracts; assay type: cell-based, Human; details: for Chk1 S345 phosphorylation after antimetabolite treatment: 1 mM HU, 5 μM Gem or 5 μM Ara-C for 2 h, FIG. 1
# Description: as §1, §2
# (§3) Western blot analysis of siRNA knockdowns is performed as follows. Cell pellets are trypsinized, washed with PBS, and lysed in 2×SDS sample buffer (Invitrogen, Carlsbad, Calif.). Protein extracts are separated by SDS-polyacrylamide gel electrophoresis and transfer to Immobilon®-P membrane (Millipore, Billarica, Mass.). Antibodies used in this study are obtained from Santa Cruz Biotechnology, Inc. (Santa Cruz, Calif.) (Polα, Polε, Polδ, Rad17), Cell Signaling Technology, Inc. (Danvers, Mass.) (pS345-Chk1, pT68-Chk2), Stressgen Bioreagents Corp. (San Diego, Calif.) (Chk1), and Bethyl Laboratories, Inc. (Montgomery, Tex.) (pS33-RPA 32).
# U20S cells were untreated (“-”) or treated with 1 mM HU, 5 μM Gem, or 5 μM Ara-C for 2 h. Cell extracts were prepared and immunoblotted with a phospho-Chk1 S345 antibody to show phosphorylated Chk1 (Chk1 S345) and Chk1 (loading control). […] Liu et al. (2000) Genes Dev. 14:1448; Zhao & Piwnica-Worms (2001) Mol. Cell. Biol. 21:4129; Capasso et al. (2002) J. Cell Sci. 115:4555.
# At 48 h after siRNA transfections, extracts were prepared and immunoblotted with the indicated antibodies. HU-treated cells were treated with 1 mM HU for 7 h before harvest.
# [3] = test system: RPA32 S33 phosphorylation in U20S cells; assay: Western blot of RPA32 S33 phosphorylation in cell extracts; assay type: cell-based, Human; details: 1 mM HU 15 h, cells transfected with luciferase (control) siRNA, FIG. 10
# Description: as §1, §2, §3
# Cells were tested for Chk1 and RPA32 phosphorylation as a function of depletion of DNA polymerases alone and in combination with depletion of Chk1. […]
# [4] = test system: Chk1 S345 in Polα complexes, U20S cells; assay: Time course of Chk1 S345 accumulation in Polα immunoprecipitates; assay type: cell-based, Human; details: HU for 0.5, 1, 2 and 15 h; first time point tested; FIG. 9
# Description: Immunoprecipitation is performed as follows. Cell pellets are lysed in LT250 buffer (50 mM Tris-HCl pH 7.4, 250 mM NaCl, 5 mM EDTA, 0.1% NP-40, 10% glycerol, 1 mM DTT, 1:100 dilution of phosphatase inhibitor set I and II, and protease inhibitor cocktail set 111 (Calbiochem, San Diego, Calif.). Protein concentrations are determined using the Bio-Rad Protein Assay (Bio-Rad, Hercules, Calif.). For immunoprecipitation, protein lysates (2 mg) are incubated with anti-Polα (SJK 132-20) antibody cross-linked to ImmunoPure Protein G beads for 4 hours at 4° C. Pab419 monoclonal Ab against SV40 T antigen is typically used as a negative control.
# (§4) A time course of HU induction of Chk1 phosphorylation was performed. U20S cells were treated with HU for 0.5, 1, 2 and 15 h, and protein extracts were prepared for immunoprecipitation. Polα was immunoprecipitated with Polα antibodies (SJK132-20) cross-linked to protein G. Western blots were performed using anti-Polα, anti-Chk1, and anti-Chk1 S345 antibodies (FIG. 9). Chk1 phosphorylation was complete at even the earliest timepoint, and both Chk1 and Chk1 S345P co-immunoprecipitated with Polα.
# [5] = target: T1, human DNA polymerase alpha; assay: immunoprecipitation with SJK132-20, HU time course, western blot
# Description: as §4
molecule,measurement,setting,value
COc1ccc(CNC(=O)c2cccc(-c3cnc(N)c(C(=O)N[C@H]4CCCNC4)n3)c2)cc1 [3-amino-6-{3-[({[4-(methyloxy)phenyl]methyl}amino)carbonyl]phenyl}-N-[(3S)-piperidin-3-yl]pyrazine-2-carboxamide],percentage of cells exhibiting substantial double-stranded DNA breaks (γ-H2AX),"[1]; Chk1 inhibitor 2.5 μM, 2 hours, combined with siRNA ablation of PolA, controls less than 1%, FIG. 4B",over 50%
"Nc1ccn([C@@H]2O[C@H](CO)[C@@H](O)[C@@H]2O)c(=O)n1 [Ara-C, cytarabine]",Chk1 S345 phosphorylation after antimetabolite treatment,[2],induced substantial phosphorylation of Chk1
"Nc1ccn([C@@H]2O[C@H](CO)[C@@H](O)C2(F)F)c(=O)n1 [Gem, gemcitabine]",Chk1 S345 phosphorylation after antimetabolite treatment,[2],induced substantial phosphorylation of Chk1
"NC(=O)NO [HU, hydroxyurea]",RPA32 phosphorylation in whole cell extracts,[3],low level RPA32 phosphorylation
same,H2A.X phosphorylation compared to control samples,"[1]; FIG. 4A, average of three experiments",modestly increase
same,cells exhibiting DNA damage compared with control cultures,"[1]; FIGS. 2B and 2C, siRNA 48 h, HU 1 mM with control siRNA",approximately 10 fold
same,time at which Chk1 S345 response in Polα complexes was complete,[4],≤ 0.5 h
same,Chk1 S345 phosphorylation in whole cell extracts,"[2]; 1 mM HU 15 h, cells transfected with luciferase (control) siRNA, FIG. 10",strong Chk1 S345 phosphorylation
same,Chk1 S345 phosphorylation after antimetabolite treatment,[2],induced substantial phosphorylation of Chk1
B1,binding result,[5],binds
